According to paper PMC11229374, “Unlocking the potential of protein-derived peptides to target G-quadruplex DNA: from recognition to anticancer activity” (Nucleic Acids Research, 2024):
*: point of attachment. FITC = O=C1OC2(c3ccc(O)cc3Oc3cc(O)ccc32)c2ccc(NC(=S)*)cc21; AEEA = NCCOCCOCC(=O)O

Tests used:
[1] = test system: c-KIT2 G4; assay: CD melting, thermal stabilization of c-KIT2 G4; assay type: binding, human; settings: for ΔT1/2 of c-KIT2 G4: CD melting at 264 nm, 2 mol equiv of peptide with respect to G4, 2 μM DNA, 5 mM KH2PO4/K2HPO4 pH 7.0, 20 mM KCl, average of three, T1/2 c-KIT2 alone 59.5°C; for ΔΔT1/2, change in c-KIT2 G4-stabilizing properties with respect to Myb^397–415: CD melting, 2 mol equiv peptide, difference to Myb^397–415
Description: The buffer baseline was subtracted from each spectrum.

[2] = target: c-KIT2 G4; assay: Microscale thermophoresis (MST) binding to c-KIT2 G4; set-up: species or system human; settings: 25°C, 20 nM FITC-labelled peptide, DNA serial dilution, 5 mM KH2PO4/K2HPO4 pH 7.0, 20 mM KCl, 0.1% Tween, 5% DMSO
Procedure: MST experiments were conducted using a Monolith NT.115 instrument (NanoTemper Technologies, Munich, Germany) at 25°C with medium MST power settings. […] DNA samples were also diluted using the same buffer supplemented with 0.1% Tween. During MST experiments, the concentration of the labelled peptide was kept constant at 20 nM, while a serial dilution of the investigated DNA molecules (ranging from 10 or 20 μM) was prepared and mixed with the peptide solution in a 1:1 volume ratio. All the samples, with a final concentration of 5% DMSO, were loaded into standard capillaries (NanoTemper Technologies) for MST measurements. Data analysis was carried out using the MO.Affinity Analysis (v2.3) software provided with the instrument.

[3] = test system: c-KIT2 G4; assay: Isothermal titration calorimetry (ITC) with c-KIT2 G4; assay type: binding, human; settings: ITC at 25°C, triplicate; for Ka: c-KIT2 G4 16–20 μM, peptide 280–400 μM, 5 mM KH2PO4/K2HPO4, 20 mM KCl, pH 7.0; for Kd: c-KIT2 G4, Kd = 1/Ka
Procedure: ITC experiments were conducted at 25°C using a nano-ITC Low Volume calorimeter (TA instruments, Lindon, UT, USA). DNA and peptide solutions were prepared using the same batch of buffer (5 mM KH2PO4/K2HPO4 buffer containing 20 mM KCl, pH 7.0) to prevent differences in buffer composition and pH. Each titration consisted of 25 injections of a 2 μl peptide solution (280–400 μM) sequentially injected using a computer-controlled 50 μl syringe, into the calorimetric vessel (190 μl) containing the oligonucleotide (16–20 μM). A spacing of 300 s between each injection was applied to allow the system to reach the equilibrium. The heat generated by peptide dilution was assessed in a control experiment by injecting the peptide solution into the buffer (Supplementary Figure S30). All measurements were performed in triplicate. Subsequently, the interaction heat for each injection was calculated considering the correction for the heat of peptide dilution. The corrected heat values were plotted as a function of the molar ratio to provide binding isotherms. The isotherms were fitted with a multiple-sites binding model using the NanoAnalyze software (TA instruments) provided with the instrument. This analysis provided the equilibrium binding constant (Ka), binding enthalpy (ΔH°), and stoichiometry of interaction (n). The equilibrium dissociation constant (Kd), Gibbs free-energy change and entropy change were determined using the following relationships: Kd = 1/Ka, ΔG° = -RT ln Ka (R = 8.314 J mol^−1 K^−1, T = 298.15 K), and TΔS° = ΔH° – ΔG°.

[4] = test system: U2OS cells; assay: Viability assay (crystal violet), U2OS; assay type: cell-based; settings: for Impact on cancer cell viability, peptides in native form: unconjugated peptides
Procedure: U2OS, HCT116 and MDA-MB-231 cells were purchased from the ATCC and grown in Dulbecco modified Eagle's medium (DMEM; EuroClone, Milan, Italy; ECM0728L) supplemented with 10% Fetal Bovine Serum (FBS, ThermoFisher Scientific/Gibco, Waltham, MA, USA; 10270-106), 2 mM L-glutamine and antibiotics in a humidified incubator at 37°C with 5% CO2 and atmospheric O2 concentration. Cell lines were authenticated and tested to be mycoplasma-free.
U2OS, HCT116, and MDA-MB-231 cells were seeded in 24-well plates at a density of 1 × 10^4, 20 × 10^3 and 12 × 10^3 for each well, respectively. After 24 h, cells were treated with the indicated peptides and incubated at 37°C for additional 72 h. Upon treatment completion, cell medium was removed, the wells were washed twice in phosphate-buffered saline (PBS) and fixed with 4% formaldehyde for 15 min at room temperature (RT). After washing, 500 μl of crystal violet staining solution (Sigma-Aldrich, St. Louis, MO, USA) was added to each well and incubated for 30 min at RT. Finally, the plates were rinsed twice with water, air-dried and cell pellets were dissolved in 400 μl of a 10% aqueous solution of acetic acid. In total, 200 μl of each sample was transferred to a 96-well plate, and the optical density was measured at 570 nm (OD570) with an ELISA reader (Thermo Scientific, Waltham, MA, USA). The average absorbance in each condition was used to calculate the viability expressed as a percentage of treated vs untreated conditions (CTR).

[5] = target: T1, FITC-Myb397-415 (UniProt P11938); assay: MST; settings: 2'-F-ANA-guanosine at bold G; positions lost in the text; 5 mM KH2PO4/K2HPO4 pH 7.0, 20 mM KCl (LiCl for c-MYC stock), 25 C; MST with 0.1% Tween and 5% DMSO, 20 nM FITC-peptide
T1 sequence: NHTGNSIRHRFRVYLSKRL

[6] = target: T2, FITC-Myb397-415 (UniProt P11938 397-415); assay: microscale thermophoresis; 5 mM KH2PO4/K2HPO4, 20 mM KCl (c-MYC stock annealed in LiCl), pH 7.0; MST 25 C with 0.1% Tween, 5% DMSO, 20 nM labelled peptide, DNA titrated (stocks from 10 or 20 uM, mixed 1:1); ITC 25 C; settings: tags: N-terminal FITC-O2Oc, C-terminal NH2
T2 chain: {FITC-AEEA}-NHTGNSIRHRFRVYLSKRL-NH2

[7] = target: T2, FITC-Myb397-415; assay: MST; 20 mM K+; 5 mM KH2PO4/K2HPO4 pH 7.0, 20 mM KCl (LiCl for c-MYC stock), 25 C; MST with 0.1% Tween and 5% DMSO, 20 nM FITC-peptide; settings: hybrid G4
[8] = target: T3, Myb397-415 (UniProt P11938 397-415); assay: isothermal titration calorimetry; 5 mM KH2PO4/K2HPO4, 20 mM KCl (c-MYC stock annealed in LiCl), pH 7.0; MST 25 C with 0.1% Tween, 5% DMSO, 20 nM labelled peptide, DNA titrated (stocks from 10 or 20 uM, mixed 1:1); ITC 25 C; settings: tags: N-acetyl; C-terminal NH2; chain copies: 3; parallel G4
T3 chain: NHTGNSIRHRFRVYLSKRL

AHTGNSIRHRFRVYLSKRL [Myb^A397]
ΔT1/2 of c-KIT2 G4 [1]: 18.0 (±0.2) °C

Ac-NHTANSIRHRFRVYLSKRL-NH2 [Myb^A400]
Kd [2]: ~170 nM
ΔT1/2 of c-KIT2 G4 [1]: 21.1 (±0.4) °C
ΔΔT1/2, change in c-KIT2 G4-stabilizing properties with respect to Myb^397–415 [1]: 3.8 °C
Ka [3]: 7.3 (±1.3) ×10^6 M^−1
Kd [3]: 137 nM
Impact on cancer cell viability, peptides in native form ([4]; 72 h treatment): unable to significantly impact cancer cells viability

Ac-NHTGNSIRHRFRVYLAKRL-NH2 [Myb^A412]
Kd [2]: ~130 nM
ΔT1/2 of c-KIT2 G4 [1]: 23.3 (±0.2) °C
ΔΔT1/2, change in c-KIT2 G4-stabilizing properties with respect to Myb^397–415 [1]: 6.0 °C
Ka [3]: 5.3 (±0.8) ×10^6 M^−1
Kd [3]: 187 nM
Impact on cancer cell viability, peptides in native form ([4]; 72 h treatment): unable to significantly impact cancer cells viability

NATGNSIRHRFRVYLSKRL [Myb^A398]
ΔT1/2 of c-KIT2 G4 [1]: 19.8 (±0.2) °C

NHAGNSIRHRFRVYLSKRL [Myb^A399]
ΔT1/2 of c-KIT2 G4 [1]: 18.5 (±0.2) °C

NHTGASIRHRFRVYLSKRL [Myb^A401]
ΔT1/2 of c-KIT2 G4 [1]: 19.7 (±0.2) °C

NHTGNAIRHRFRVYLSKRL [Myb^A402]
ΔT1/2 of c-KIT2 G4 [1]: 18.5 (±0.2) °C

NHTGNSARHRFRVYLSKRL [Myb^A403]
ΔT1/2 of c-KIT2 G4 [1]: 17.7 (±0.2) °C

NHTGNSIAHRFRVYLSKRL [Myb^A404]
ΔT1/2 of c-KIT2 G4 [1]: 16.6 (±0.2) °C

NHTGNSIRARFRVYLSKRL [Myb^A405]
ΔT1/2 of c-KIT2 G4 [1]: 16.0 (±0.2) °C

NHTGNSIRHAFRVYLSKRL [Myb^A406]
ΔT1/2 of c-KIT2 G4 [1]: 12.1 (±0.3) °C

NHTGNSIRHRARVYLSKRL [Myb^A407]
ΔT1/2 of c-KIT2 G4 [1]: 17.8 (±0.2) °C

NHTGNSIRHRFAVYLSKRL [Myb^A408]
ΔT1/2 of c-KIT2 G4 [1]: 14.0 (±0.6) °C

NHTGNSIRHRFRAYLSKRL [Myb^A409]
ΔT1/2 of c-KIT2 G4 [1]: 14.7 (±0.6) °C

NHTGNSIRHRFRVALSKRL [Myb^A410]
ΔT1/2 of c-KIT2 G4 [1]: 13.6 (±0.2) °C

NHTGNSIRHRFRVYASKRL [Myb^A411]
ΔT1/2 of c-KIT2 G4 [1]: 19.5 (±0.4) °C

NHTGNSIRHRFRVYLSARL [Myb^A413]
ΔT1/2 of c-KIT2 G4 [1]: 10.7 (±0.6) °C

NHTGNSIRHRFRVYLSKAL [Myb^A414]
ΔT1/2 of c-KIT2 G4 [1]: 10.7 (±0.6) °C

NHTGNSIRHRFRVYLSKRA [Myb^A415]
ΔT1/2 of c-KIT2 G4 [1]: 17.8 (±0.5) °C

RRRRRRRW-GG-NHTGNSIRHRFRVYLAKRL [R7W-Myb^A412, Myb^A412 N-terminally conjugated to the cell-penetrating peptide R7W via a glycine–glycine spacer]
Inhibition of tumour cell growth compared with the other R7W-conjugated peptides ([4]; 72 h, at the 5 μM concentration): slightly more effective than the others
Inhibition of tumour cell growth, R7W-conjugated peptides ([4]; 72 h treatment): essentially to the same extent as R7W-Myb^397–415

RRWWRRWRR-GG-NHTGNSIRHRFRVYLSKRL [R6W3-Myb^397–415]
IC50 ([4]; 72 h treatment, read-out: IC50 (concentration of drug capable of killing 50% of cells)): ~10000 nM

TAGGGTTAGGGTTAGGGTTAGGG [HT-FANA]
Kd [5]: 140 nM

TGAGGGTGGGTAGGGTGGGTAA (structured_DNA) [c-MYC]
Kd ([6]; parallel G4): 430 ± 100 nM

TTGGGTTAGGGTTAGGGTTAGGGA (structured_DNA) [HT1]
Kd ([6]; hybrid G4): 900 ± 140 nM
Kd [7]: 900 ± 140 nM

B1: ds12 (dsDNA)
DNA 1: CGCGAATTCGCG
DNA 2: CGCGAATTCGCG
binding result ([6]; blunt, self-complementary): no binding

TCGGGTTGCGGGCGCAGGGCACGGGCG (structured_DNA) [HRAS1]
binding result ([6]; antiparallel G4): no binding

TTAGGGTTAGGGTTAGGGTTAGGGTT (structured_DNA) [HT2]
Kd ([6]; hybrid G4): 1180 ± 90 nM
Kd [7]: 1180 ± 90 nM

GGAGAAGGAGGAGGTGGAGGAGGAGGG (structured_DNA) [HER2]
Kd ([6]; parallel G4): 130 ± 20 nM
Kd [8]: 100 ± 10 nM

GGGTACCCGGGTGAGGTGCGGGGT (structured_DNA) [VEGFR-17T]
binding result ([6]; hybrid (mixed parallel/antiparallel) G4): no binding

GGGCGCGGGAGGAATTGGGCGGG (structured_DNA) [BCL-2]
Kd ([6]; hybrid G4): 280 ± 42 nM

AGGGAGGGCGCTGGGAGGAGGG (structured_DNA) [c-KIT1]
Kd ([6]; parallel G4): 340 ± 44 nM

GGGTTTGGGTTTTGGGAGGG (structured_DNA) [LWDLN1]
binding result ([6]; antiparallel G4): no binding
